# Values quoted from earlier work in patent publication US20150272967A1, “EXTREMELY HIGH LOADING DOSE” (priority 2013, published 2015).
# Experiments:
# prostate cancer patients = conditions: dose significantly lower than that of the invention
# breast cancer patients = conditions: modest low doses
Compound,patients showing improvement (significant decrease in the number of positive cancer biopsy samples) (prostate cancer patients) [%],disease free survival (breast cancer patients; 25.5 without supplementation) [months],median overall survival (breast cancer patients; 32.8 without supplementation) [months]
"C=C1CC[C@H](O)C/C1=C/C=C1\CCC[C@]2(C)[C@@H]([C@H](C)CCCC(C)C)CC[C@@H]12 [Vitamin D3, cholecalciferol]",55,,
Vitamin D,,32.6,43.8
